Source: Sander's compilation of Henry's law constants (doi:10.1002/jsfa.1137)

test: Henry solubility constant Hcp at 310 K (mol/(m3 Pa)); settings: reference: van Ruth et al. (2002)

Row | Structure (SMILES) | Henry solubility constant Hcp at 310 K
1 | CCCCCCO [1-hexanol] | 0.25
2 | CCCO [1-propanol] | 0.32
3 | CCCCCCCCC(C)=O [2-decanone] | 0.018
4 | CCCCCC(C)=O [2-heptanone] | 0.039
5 | CCCCCCCC(C)O (stereo not given) [2-nonanol] | 0.065
6 | CCCCCCC(C)=O [2-octanone] | 0.029
7 | CCCCOC(C)=O [butyl ethanoate] | 0.028

Results, then the compound that gave them:

Row | Henry solubility constant Hcp at 310 K | Structure (SMILES)
8 | 0.3 | CCCC(C)O (stereo not given) [2-pentanol]
9 | 0.33 | CC(C)CCO [3-methyl-1-butanol]
10 | 0.0064 | CSC [dimethyl sulfide]
11 | 0.021 | CCCC(=O)OCC [ethyl butanoate]
12 | 0.039 | CCOC(C)=O [ethyl ethanoate]
13 | 0.02 | CCCCCCC=O [heptanal]
14 | 0.021 | CCCCCCCC=O [octanal]
15 | 0.039 | CCCOC(C)=O [propyl ethanoate]
